Assay results from ChEMBL document CHEMBL1127467, “Molecular modeling studies of some choline acetyltransferase inhibitors” (J Med Chem, 1994).

Target: T1, Choline O-acetyltransferase (Homo sapiens, UniProt P28329)
T1 sequence (P28329 whole entry): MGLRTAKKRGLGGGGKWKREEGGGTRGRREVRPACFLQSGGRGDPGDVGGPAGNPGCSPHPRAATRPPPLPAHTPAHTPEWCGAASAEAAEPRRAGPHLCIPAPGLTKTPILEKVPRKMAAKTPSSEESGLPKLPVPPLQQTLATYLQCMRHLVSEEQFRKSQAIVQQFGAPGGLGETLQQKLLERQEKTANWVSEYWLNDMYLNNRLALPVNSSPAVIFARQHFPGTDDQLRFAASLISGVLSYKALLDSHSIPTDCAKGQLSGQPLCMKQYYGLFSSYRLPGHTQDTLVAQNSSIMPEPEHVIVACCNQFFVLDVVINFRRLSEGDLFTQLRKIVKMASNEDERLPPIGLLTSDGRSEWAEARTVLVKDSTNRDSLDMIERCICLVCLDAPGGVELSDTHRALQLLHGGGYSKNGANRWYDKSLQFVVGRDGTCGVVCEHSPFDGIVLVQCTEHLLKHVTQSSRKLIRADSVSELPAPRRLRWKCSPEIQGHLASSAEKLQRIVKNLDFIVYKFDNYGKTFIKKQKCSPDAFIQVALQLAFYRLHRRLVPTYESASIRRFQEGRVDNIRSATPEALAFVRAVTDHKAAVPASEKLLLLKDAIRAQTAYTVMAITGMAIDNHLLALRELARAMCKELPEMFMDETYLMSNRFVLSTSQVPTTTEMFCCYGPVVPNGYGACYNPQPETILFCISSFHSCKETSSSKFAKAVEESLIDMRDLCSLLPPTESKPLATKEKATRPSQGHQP
Test: Inhibition of Choline Acetyltransferase
Conditions: read-out: I50

SMILES | IC50 [µM]
C[n+]1ccc(/C=C/c2cc3ccccc3c3ccccc23)cc1 | > 100
C[n+]1ccc(/C=C/c2cccc3ccccc23)cc1 | 0.4
Cc1c[n+](C)ccc1/C=C/c1ccccc1 | 5
C[n+]1ccc(/C=C/c2ccccc2)cc1 | 13.5
COc1ccc(/C=C/c2cc[n+](C)cc2)c2ccccc12 | > 100
C[n+]1ccc(/C=C/c2cccc(Cl)c2)cc1 | 2.3
CCc1c[n+](C)ccc1/C=C/c1ccccc1 | 19
C[n+]1ccc(/C=C/c2ccccc2)c2ccccc21 | 3.5
C/C(=C\c1ccccc1)c1cc[n+](C)cc1 | > 100
C[n+]1ccc(/C=C/c2ccccc2Cl)cc1 | 28
C[n+]1ccc(/N=C/c2cccc3ccccc23)cc1 | > 100
Cc1c[n+](C)ccc1/C=C/c1cccc2ccccc12 | 0.4
C[n+]1ccc(/C=N/c2cccc3ccccc23)cc1 | 1.5
